Measured values taken from PMC5320394, “Development of a Novel Formulation That Improves Preclinical Bioavailability of Tenofovir Disoproxil Fumarate” (Journal of Pharmaceutical Sciences, 2017).
Where a name gives a salt, the structure may show the parent alone. Read-outs that look alike come from different tables or passages of the source. One block for each molecule: values may come before it.

Tests used:
[1] = system: Caco-2 cell monolayers; format: in vitro ADME
Experimental: (§3) Caco-2 monolayer experiments were performed as previously described[30] with a few modifications. […] Following incubation, the media was replaced to remove dead cells and prevent the formation of multiple layers of cells settling on the filter. Media was then changed every 2-3 days and plates were used in experiments after a total of 21 days from initial seeding. Monolayer integrity was checked before and after each experiment using a Millicell-ERS instrument to determine the TEER across the monolayer and to ensure that there was no substantial change in monolayer integrity throughout the duration of an experiment. On the day of the experiment, the TEER was assessed and the media in each plate was replaced with warm HBSS (pH 7) and allowed to equilibrate (37°C, 30 min). Apical (for apical-to-basolateral [A-to-B] transport) chambers were replaced with HBSS containing 10 μM (final concentration, n = 3 reps) aqueous solution of drug and inhibitors. Samples were taken from both apical and basolateral compartments at 120 min and diluted into an appropriate solvent to allow drug quantitation using LC-MS/MS.
(§4) Samples from permeability assays were also diluted into Mobile Phase A prior to analysis.
(§5) Mobile Phase A was 3/1/96 acetonitrile/acetic acid/water and Mobile Phase B was 96/1/3 acetonitrile/acetic acid/water. Rather than isocratic elution, a gradient program was used. The gradient program held at 0% B for 1 min, ramped to 98% B from 1 to 2 min, held at 98% B from 2 to 3 min, and then returned to initial conditions. Q1/Q3 ions for TFV-ME and TDF were 404.0/270.0 and 520.1/270.0, respectively.

[2] = system: human intestinal S9; assay: TDF stability in human intestinal S9 fraction and effect of inhibitors; settings: for inhibition of TDF hydrolysis: human S9
Experimental: (§6) TDF solutions were prepared at 10 μM in rat or human intestinal S9 fraction (0.5 mg protein/mL). Inhibitors were added to the solutions. […] Control samples included buffer, human S9, or rat S9 solutions with only TDF. Samples were incubated at 37°C for 0, 5, 10, 15, 20, and 30 min and then analyzed by LC-MS/MS for TDF, TFV-ME, TFV, and PP (to quantify stability).
(§7) Samples from S9 incubations were analyzed using the LC-MS/MS conditions described earlier for Caco-2 samples.

[3] = system: rat intestinal S9; assay: TDF stability in rat intestinal S9 fraction and effect of inhibitors; settings: for inhibition of TDF hydrolysis: rat S9
Experimental: as §6, §7

[4] = system: porcine pancrelipase (PL); assay: Hydrolysis of TDF by PL and effect of enzyme inhibitors; format: biochemical; settings: for protection of TDF against PL hydrolysis: PP or MP together or alone, FaSSIF with PL; for half-life at 10 µM: pig, with none, Control, 10 μM TDF, PL, 37°C, no inhibitor, read-out: TDF t1/2
Experimental: TDF solutions were prepared at 10 μM and incubated in triplicate at 37°C in FaSSIF containing PL at 480 U/mL with and without inhibitors. Inhibitors were added at 10% vol/vol for the oils (sesame, olive, safflower, soybean, and coconut); at 10 mM for PP, MP, and EM1; and at 0.05 mM/0.002 mM for EDTA/PMSF. Controls consisted of TDF in transport media or FaSSIF with and without PL. Samples were incubated at 37°C and quenched with acetonitrile at 10, 15, 20, and 30 min. For each time point, the % TDF or % TFV-ME remaining was determined by LC-MS/MS as described below.

[5] = system: rat intestinal homogenates; set-up: method as in PMID 12124311; settings: cited from earlier work
[6] = set-up: method as in ref 33 = [33]; 33 Arimilli M. Kim C. Bischofberger N. Dougherty J. Synthesis, in vitro biological evaluation and oral bioavailability of prodrugs of the antiretroviral agent 9-[2-(phosphonomethoxy)-propyl] adenine; settings: cited from earlier work
[7] = cited from earlier work
[8] = dog, in vivo; cited from earlier work
[9] = set-up: method as in PMID 9660984; settings: oral administration of TDF; mice; cited from earlier work
[10] = in vitro; settings: rat, intestinal S9 fraction
Experimental: as §6, §7

[11] = in vitro; settings: human, intestinal S9 fraction
Experimental: as §6, §7

[12] = system: MDCK-MDR1 cells (P-gp); assay: MDCK-MDR1 efflux studies; format: in vitro ADME, canine; settings: for Papp, B to A / Papp, A to B: (SEM)
Experimental: (§1) MDCK-MDR1 cells (Netherlands Cancer Institute) were seeded at a density of 3 × 10^5 cells per well onto microporous polycarbonate membranes in 12-well Costar Transwell plates (Corning, Inc.). The cells were incubated for 3 days during which time they formed confluent monolayers. Monolayer integrity was checked using a Millicell-ERS instrument (Millipore) to determine the transepithelial electrical resistance (TEER) across the monolayer. […] […] Competency of the P-gp efflux transporter was confirmed by assay of propranolol (nonsubstrate) and amprenavir (substrate). Cell monolayers were incubated in triplicate with shaking (160 rpm) at 37°C for 2 h. Samples were removed from the apical and basolateral compartments after incubation and assayed for test compound concentrations by LC-MS/MS.
(§2) Conditions were similar to those used for Caco-2 analyses. Differences included the use of a Phenomenex Synergi Hydro-RP column (4 μm, 2.1 × 50 mm) at 60°C, mobile phases of aqueous 0.2% formic acid (A) and neat methanol (B), and a rapid 0.9 min gradient from 0% to 95% B.

[13] = system: P-gp; assay: MDCK-MDR1 efflux studies; format: in vitro ADME, canine; settings: dog; for Papp B→A at 120 min, 5 µM: (SEM)
Experimental: as §1, §2

[14] = system: porcine pancrelipase (PL); assay: Stability in SGF and FaSSIF with and without PL; format: in vitro ADME; settings: 37°C; for stability in SGF and FaSSIF: without PL, up to 120 min, TDF 10 μM
Experimental: Samples were incubated at 37°C and quenched with acetonitrile at 0, 15, 30, 60, 90, and 120 min. For each time point, the % TDF or % TFV-ME remaining was determined by LC-MS/MS as described below.

[15] = system: Caco-2 cell monolayers (P-gp); assay: in vitro; format: in vitro ADME; settings: Caco-2, 10 μM TDF, 120 min, no inhibitor (CsA 0.00 µM)
Experimental: as §3, §4, §5

[16] = system: P-gp; assay: in vitro; format: in vitro ADME; settings: human, Caco-2, pH 7, with none (CsA 0.00 µM)
Experimental: as §3, §4, §5

[17] = pH stability of TDF in SGF and FaSSIF; format: physicochemical; settings: 1 mM TDF
Experimental: The pH of fasted state simulated intestinal fluid (FaSSIF)[27] was adjusted with 2M NaOH to pH of 6.8, 9, and 11. Simulated gastric fluid (SGF) was used as is at pH 1.2. TDF solutions (100 mM) were prepared in 99% dimethyl sulfoxide. TDF solutions (1 mM) were prepared by 100-fold dilution in FaSSIF and SGF. The pH of the final solution was not measured.
The TDF stability study at pH 1.2 was measured at 37°C in triplicate at 0, 15, 30, 60, 90, and 120 min. The TDF stability studies at pH 6.8, 9, and 11 were measured at 37°C in triplicate at 0, 30, 60, 120, and 240 min. Samples (5 μL) were quenched by diluting 200-fold with 4°C 0.1% formic acid (35% MeOH). These samples were analyzed by liquid chromatography tandem mass spectrometry (LC-MS/MS).

[18] = set-up: method as in PMID 11557462, PMID 15217303; settings: humans, cited from earlier work
[19] = set-up: method as in ref 50 = [50]; 50 Center for Drug Evaluation and Research (2001) Clinical Pharmacology and Pharmaceutics Review Application Number 21-356, page 78 Available at: http://www.accessdata.fda.gov/drugsatfda_docs/nda/2001; settings: rat, literature, normalized for dose; cited from earlier work
[20] = system: lymphocytes; set-up: method as in PMID 9517941; settings: cited from earlier work
[21] = in vivo; set-up: species or system Sprague-Dawley rats; settings: rat, given IV; for AUC: male, Sprague-Dawley, plasma, iv, AUC0-8h
[22] = Caco-2, versus no inhibitor, 1 mM BNPP, 1 mM PP, 0.05% wt/vol EM1, 0.5 mg/mL TPGS, 10 μM CsA, 2 μM GF918
[23] = Caco-2 A to B, 10 μM, 120 min, 1 mM BNPP, 1 mM PP, 0.05% wt/vol EM1, 0.5 mg/mL TPGS, 10 μM CsA, 2 μM GF918
[24] = human S9, 10 μM TDF, 37°C, 10 μM BNPP, 100 μM PMSF, 0.05% wt/vol EM1, 1 mM PP, 1 mM MP, 1 mM EP
[25] = rat S9, 10 μM TDF, 37°C, 10 μM BNPP, 100 μM PMSF, 0.05% wt/vol EM1, 1 mM PP, 1 mM MP, 1 mM EP
[26] = MDCK-MDR1, with none (0 µM GF918)

Compound: O=[N+]([O-])c1ccc(OP(=O)(O)Oc2ccc([N+](=O)[O-])cc2)cc1 [BNPP, Bis-para-nitrophenylphosphate]
- Fold Increase, TDF (A to B transport) [1, 22]: 6.2 fold
- Fold Increase, TFV Family (A to B transport) [1, 22]: 3.1 fold
- % Measured Basolateral, TDF (median), with inhibitor(s) [1, 23]: 4.88%
- % Measured Basolateral, TNF (median), with inhibitor(s) [1, 23]: 0.00%
- % Measured Basolateral, TNF-ME (median), with inhibitor(s) [1, 23]: 0.55%
- TDF Rate Constant with inhibitor [2]: -0.009 min⁻¹
- TDF Rate Constant with inhibitor [3]: -0.016 min⁻¹

Compound: CCOC(=O)c1ccc(O)cc1 [EP, ethylparaben]
- TDF Rate Constant with inhibitor [2, 24]: -0.210 min⁻¹
- inhibition of TDF hydrolysis ([2]; 100 μM PMSF, 1 mM EP, 1 mM MP): did not show any substantial inhibition
- TDF Rate Constant with inhibitor [3, 25]: -1.023 min⁻¹
- inhibition of TDF hydrolysis ([3]; 100 μM PMSF, 1 mM EP, 1 mM MP): did not show any substantial inhibition

- protection of TDF against PL hydrolysis [4]: did not protect TDF
Compound: COC(=O)c1ccc(O)cc1 [MP, methylparaben]
- TDF Rate Constant with inhibitor [2, 24]: -1.065 min⁻¹
- inhibition of TDF hydrolysis ([2]; 100 μM PMSF, 1 mM EP, 1 mM MP): did not show any substantial inhibition
- TDF Rate Constant with inhibitor [3, 25]: -1.297 min⁻¹
- inhibition of TDF hydrolysis ([3]; 100 μM PMSF, 1 mM EP, 1 mM MP): did not show any substantial inhibition

Compound: O=S(=O)(F)Cc1ccccc1 [PMSF, phenylmethylsulfonyl fluoride]
- TDF Rate Constant with inhibitor [2, 24]: -0.185 min⁻¹
- inhibition of TDF hydrolysis ([2]; 100 μM PMSF, 1 mM EP, 1 mM MP): did not show any substantial inhibition
- TDF Rate Constant with inhibitor [3, 25]: -1.064 min⁻¹
- inhibition of TDF hydrolysis ([3]; 100 μM PMSF, 1 mM EP, 1 mM MP): did not show any substantial inhibition

Compound: CCCOC(=O)c1ccc(O)cc1 [PP, propylparaben]
- inhibition of TDF metabolism [5]: 94.5%
- TDF Rate Constant with inhibitor [2, 24]: -0.035 min⁻¹
- TDF Rate Constant with inhibitor [3, 25]: -0.196 min⁻¹
- protection of TDF against PL hydrolysis [4]: did not protect TDF

Compound: CC(C)OC(=O)OCOP(=O)(CO[C@H](C)Cn1cnc2c(N)ncnc21)OCOC(=O)OC(C)C [TDF, Tenofovir disoproxil fumarate]
- half-life ([6]; pH 2.2, 37°C): > 150 h
- half-life ([6]; pH 7.4, 37°C): 8 h
- % Measured Basolateral, TDF (median) ([1]; Caco-2 A to B, 10 μM, 120 min, no esterase inhibitor, no P-gp inhibitor): 0.78%
- pKa [7]: 3.75
- partition coefficient (log P) [7]: 1.25
- Biopharmaceutics Classification System class ([7]; high solubility and low permeability): class 3
- water solubility ([7]; room temperature): 15.3 mg/mL
- oral bioavailability of TFV [8]: 30%
- TDF Rate Constant ([2]; human S9 0.5 mg protein/mL, 10 μM TDF, 37°C, Buffer (no inhibitor)): -1.123 min⁻¹
- oral bioavailability of TFV [9]: 20%
- TDF Rate Constant ([3]; rat S9 0.5 mg protein/mL, 10 μM TDF, 37°C, Buffer (no inhibitor)): -1.200 min⁻¹
- half-life at 10 µM [10]: 0.58 ± 1.79 min
- half-life at 10 µM [11]: 0.62 ± 1.29 min
- Papp, B to A ([12]; MDCK-MDR1, 0 μM GF918, 120 min): 295.0 (6.1) nm/s
- Papp A→B at 120 min, 5 µM ([13]; MDCK-MDR1, with GF918 2 µM): 2.25 ×10⁻⁶ cm/s
- efflux ratio at 2 h, 5 µM ([13]; MDCK-MDR1, with GF918 2 µM): 1.5
- Papp B→A at 120 min, 5 µM ([13]; MDCK-MDR1, with GF918 2 µM, MDCK-MDR1, 2 μM GF918, 120 min): 3.41 ×10⁻⁶ cm/s
- Papp A→B at 120 min, 5 µM [13, 26]: 0.67 ×10⁻⁶ cm/s
- efflux ratio at 2 h, 5 µM [13, 26]: 44.2
- Papp B→A at 120 min, 5 µM ([13]; MDCK-MDR1, with none (0 µM GF918), MDCK-MDR1, 0 μM GF918, 120 min): 29.5 ×10⁻⁶ cm/s
- half-life at 10 µM ([4]; porcine pancrelipase (PL) in FaSSIF, FaSSIF): 6.35 min
- half-life at 10 µM ([4]; porcine pancrelipase (PL) in transport media, transport media): 7.59 min
- half-life at 10 µM ([14]; pig, porcine pancrelipase (PL) in FaSSIF, 10 μM, PL 480 U/mL): 2 ± 2.3 min
- stability in SGF and FaSSIF [14]: stable
- TDF Papp, A to B [15]: 0.698 ×10⁻⁶ cm/s
- Papp A→B at 120 min, 10 µM ([16]; Caco-2, 10 μM TDF, 120 min, no inhibitor (CsA 0.00 µM)): 0.7 ×10⁻⁶ cm/s
- efflux ratio at 120 min, 10 µM ([16]; read-out: TDF E.R. (efflux ratio)): 12
- Papp B→A at 120 min, 10 µM ([16]; read-out: TDF Papp, B to A): 8.16 ×10⁻⁶ cm/s
- half-life at 1 mM ([17]; FaSSIF pH 6.8, 37°C): 16.6 ± 3.4 h
- half-life at 1 mM ([17]; FaSSIF pH 9, 37°C): 2.9 ± 0.2 h
- half-life at 1 mM ([17]; FaSSIF pH 11, 37°C): 0.0567 ± 0.102 h
- half-life at 1 mM ([17]; SGF pH 1.2, 37°C): > 55 h
- TDF oral bioavailability following a high fat meal ([18]; after high fat meal): 39%
- oral bioavailability of TFV ([18]; oral administration of TDF): under 30%
- AUC [19]: 1490 ng·h/mL

- AUC ([21]; read-out: TFV AUC, Mean): 3210 ng·h/mL
- AUC ([21]; read-out: TFV AUC, Median): 3200 ng·h/mL
- TFV AUC, Median Fold Increase ([21]; versus oral TDF Control): 2.85 fold
Compound: C[C@H](Cn1cnc2c(N)ncnc21)OCP(=O)(O)O [TFV, tenofovir]
- intracellular half-life ([20]; activated lymphocytes): 720 to 900 min
- intracellular half-life ([20]; resting lymphocytes): 1980 to 3000 min

Compound: CC(C)OC(=O)OCOP(=O)(O)CO[C@H](C)Cn1cnc2c(N)ncnc21 [TFV-ME, tenofovir monophosphonate ester]
- Efflux ratio ([12]; MDCK-MDR1, 0 μM GF918): 2.1
- Papp, A to B ([12]; MDCK-MDR1, 0 μM GF918, 120 min): 4.1 (0.20) nm/s
- Papp, B to A ([12]; MDCK-MDR1, 0 μM GF918, 120 min): 8.8 (0.60) nm/s
- Efflux ratio ([12]; MDCK-MDR1, 2 μM GF918): 0.9
- Papp, A to B ([12]; MDCK-MDR1, 2 μM GF918, 120 min): 5.3 (0.61) nm/s
- Papp, B to A ([12]; MDCK-MDR1, 2 μM GF918, 120 min): 5.0 (0.58) nm/s
- half-life in FaSSIF with PL ([14]; 10 μM, PL 480 U/mL): 38.0 ± 2.0 min
- stability in SGF and FaSSIF [14]: stable
